The structures appear in SMILES notation.

The record followed here is US20080004271A1, “Inhibitors of TNFalpha, PDE4 and B-RAF, compositions thereof and methods of use therewith” (priority 2006, published 2008).

Common to all, as to format: biochemical
Experiment [1] concerns PDE4 enzyme purified from U937 human monocytic cells. The experiment in a line: PDE4 (U937 cell-derived) enzyme assay. As for the experimental part:
PDE4 enzyme is purified from U937 human monocytic cells by gel filtration chromatography as previously described (Muller et al. Bioorg. & Med Chem Lett 8:2669-2674 (1998)). Phosphodiesterase reactions are carried out in 50 mM Tris HCl pH 7.5, 5 mM MgCl2, 1 μM cAMP, 10 nM [^3H]-cAMP for 30 minutes at 30° C., terminated by boiling, treated with 1 mg/ml snake venom and separated using AG-1XS ion exchange resin (BioRad) as described (Id). Reactions consumed less than 15% of available substrate.

A further experiment relates to bovine PDE1. In words: PDE1 enzyme assay (PDE selectivity). As for the experimental part: (§1) The phosphodiesterase selectivity of 2,5-Diamino-4-(4-chloro-phenyl)-thieno[2,3-d]pyrimidine-6-carboxylic acid amide was assessed by testing against bovine PDE1, human PDE2, PDE3 and PDE5 from human platelets and PDE6 from bovine retinal rod outer segments (MDS Pharma Services).

The next experiment addresses T1, human PDE2 (Homo sapiens, UniProt O00408).
T1 construct: MDS Pharma Services
In words: PDE2 enzyme assay (PDE selectivity). Particulars: read-out: PDE2 (% inhibit at 10 μM). As for the experimental part:
as §1

Experiment [2] addresses T2, PDE3 from human platelets (Homo sapiens, UniProt Q14432).
T2 construct: PDE3 and PDE5 from human platelets; tissue MDS Pharma Services; host or cells: human platelets
The experiment in a line: PDE3 enzyme assay (PDE selectivity). Particulars: read-out: PDE3 (% inhibit at 10 μM). The method, then: as §1

Experiment [3] has as its target T3, PDE5 from human platelets (Homo sapiens, UniProt O76074).
T3 construct: PDE3 and PDE5 from human platelets; tissue MDS Pharma Services; host or cells: human platelets
The experiment in a line: PDE5 enzyme assay (PDE selectivity). Particulars: read-out: PDE5 (% inhibit at 10 μM). As for the experimental part: as §1

In experiment [4] the target is T4, PDE6 from bovine retinal rod outer segments (Bos taurus, UniProt P11541+P23439).
T4 construct: PDE6 from bovine retinal rod outer segments; tissue MDS Pharma Services; host or cells: bovine retinal rod outer segments
T4 sequence (P11541 2-856 limits assumed): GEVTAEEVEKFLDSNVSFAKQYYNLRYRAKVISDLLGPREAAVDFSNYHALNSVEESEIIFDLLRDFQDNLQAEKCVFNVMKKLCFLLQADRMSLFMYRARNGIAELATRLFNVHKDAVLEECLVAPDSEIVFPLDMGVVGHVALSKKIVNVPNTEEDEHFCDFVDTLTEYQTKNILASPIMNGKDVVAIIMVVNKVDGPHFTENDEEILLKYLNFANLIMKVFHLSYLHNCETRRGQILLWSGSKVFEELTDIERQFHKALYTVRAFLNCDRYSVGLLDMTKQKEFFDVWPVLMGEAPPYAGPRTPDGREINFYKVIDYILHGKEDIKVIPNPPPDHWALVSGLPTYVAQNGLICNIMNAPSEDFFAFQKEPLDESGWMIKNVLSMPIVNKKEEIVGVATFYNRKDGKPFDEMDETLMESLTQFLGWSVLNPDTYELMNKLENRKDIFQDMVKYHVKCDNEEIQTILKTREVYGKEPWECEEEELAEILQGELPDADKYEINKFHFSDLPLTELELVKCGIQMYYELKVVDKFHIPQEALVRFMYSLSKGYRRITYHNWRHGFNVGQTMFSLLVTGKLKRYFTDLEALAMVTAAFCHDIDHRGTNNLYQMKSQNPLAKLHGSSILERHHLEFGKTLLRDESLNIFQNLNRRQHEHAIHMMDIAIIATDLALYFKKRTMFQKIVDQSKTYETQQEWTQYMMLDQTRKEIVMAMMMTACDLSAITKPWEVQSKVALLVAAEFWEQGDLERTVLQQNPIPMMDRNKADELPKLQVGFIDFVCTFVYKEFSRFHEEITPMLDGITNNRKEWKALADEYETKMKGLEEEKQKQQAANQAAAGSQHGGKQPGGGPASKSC
T4 sequence (P23439 2-850 limits assumed): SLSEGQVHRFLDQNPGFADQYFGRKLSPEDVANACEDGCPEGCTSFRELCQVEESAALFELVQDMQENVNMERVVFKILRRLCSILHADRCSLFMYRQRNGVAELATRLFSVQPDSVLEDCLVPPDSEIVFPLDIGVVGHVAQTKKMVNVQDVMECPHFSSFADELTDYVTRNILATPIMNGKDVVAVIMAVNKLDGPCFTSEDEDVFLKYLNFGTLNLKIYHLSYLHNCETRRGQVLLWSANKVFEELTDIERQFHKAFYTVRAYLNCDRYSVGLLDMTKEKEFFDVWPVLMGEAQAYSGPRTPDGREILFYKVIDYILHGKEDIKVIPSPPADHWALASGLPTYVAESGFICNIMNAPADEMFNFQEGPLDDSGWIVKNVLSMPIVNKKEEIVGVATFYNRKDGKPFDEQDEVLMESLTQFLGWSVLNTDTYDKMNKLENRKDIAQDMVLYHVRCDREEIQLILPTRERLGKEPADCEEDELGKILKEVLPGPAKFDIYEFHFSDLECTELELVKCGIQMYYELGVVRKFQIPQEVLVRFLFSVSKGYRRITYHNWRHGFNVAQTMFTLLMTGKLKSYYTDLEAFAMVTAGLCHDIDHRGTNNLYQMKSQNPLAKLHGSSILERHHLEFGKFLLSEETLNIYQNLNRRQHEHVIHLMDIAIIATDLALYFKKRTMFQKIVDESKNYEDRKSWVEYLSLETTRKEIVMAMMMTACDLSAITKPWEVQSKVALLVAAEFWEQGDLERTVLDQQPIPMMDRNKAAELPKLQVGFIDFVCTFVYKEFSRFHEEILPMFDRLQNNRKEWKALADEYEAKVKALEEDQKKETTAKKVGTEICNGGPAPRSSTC
In words: PDE6 enzyme assay (PDE selectivity). Particulars: read-out: PDE6 (% inhibit at 10 μM). The method, then:
as §1

T1 sequence (O00408 whole entry): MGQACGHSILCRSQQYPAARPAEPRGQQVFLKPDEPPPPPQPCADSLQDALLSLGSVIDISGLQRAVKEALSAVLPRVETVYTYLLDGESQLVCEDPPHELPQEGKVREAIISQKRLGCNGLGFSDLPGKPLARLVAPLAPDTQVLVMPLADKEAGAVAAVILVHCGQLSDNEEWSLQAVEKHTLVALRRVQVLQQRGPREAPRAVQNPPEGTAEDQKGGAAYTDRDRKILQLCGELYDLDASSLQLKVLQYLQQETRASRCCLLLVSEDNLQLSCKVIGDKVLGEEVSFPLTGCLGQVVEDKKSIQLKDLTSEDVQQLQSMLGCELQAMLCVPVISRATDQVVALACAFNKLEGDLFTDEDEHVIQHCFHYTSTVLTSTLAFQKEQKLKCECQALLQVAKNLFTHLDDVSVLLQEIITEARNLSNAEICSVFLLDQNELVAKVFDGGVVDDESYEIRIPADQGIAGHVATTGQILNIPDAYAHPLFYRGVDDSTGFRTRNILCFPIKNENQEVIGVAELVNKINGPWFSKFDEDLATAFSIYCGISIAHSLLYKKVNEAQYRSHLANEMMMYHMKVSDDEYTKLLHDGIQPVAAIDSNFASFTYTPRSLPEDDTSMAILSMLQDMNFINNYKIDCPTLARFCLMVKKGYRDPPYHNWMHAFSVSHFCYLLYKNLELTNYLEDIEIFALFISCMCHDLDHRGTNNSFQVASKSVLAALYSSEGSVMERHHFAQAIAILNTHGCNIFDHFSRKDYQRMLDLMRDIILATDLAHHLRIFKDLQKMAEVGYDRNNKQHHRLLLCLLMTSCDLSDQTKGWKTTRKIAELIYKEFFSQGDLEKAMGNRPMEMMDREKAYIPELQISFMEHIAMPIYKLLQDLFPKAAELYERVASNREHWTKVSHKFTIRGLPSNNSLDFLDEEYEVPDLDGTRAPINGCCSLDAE
T2 sequence (Q14432 whole entry): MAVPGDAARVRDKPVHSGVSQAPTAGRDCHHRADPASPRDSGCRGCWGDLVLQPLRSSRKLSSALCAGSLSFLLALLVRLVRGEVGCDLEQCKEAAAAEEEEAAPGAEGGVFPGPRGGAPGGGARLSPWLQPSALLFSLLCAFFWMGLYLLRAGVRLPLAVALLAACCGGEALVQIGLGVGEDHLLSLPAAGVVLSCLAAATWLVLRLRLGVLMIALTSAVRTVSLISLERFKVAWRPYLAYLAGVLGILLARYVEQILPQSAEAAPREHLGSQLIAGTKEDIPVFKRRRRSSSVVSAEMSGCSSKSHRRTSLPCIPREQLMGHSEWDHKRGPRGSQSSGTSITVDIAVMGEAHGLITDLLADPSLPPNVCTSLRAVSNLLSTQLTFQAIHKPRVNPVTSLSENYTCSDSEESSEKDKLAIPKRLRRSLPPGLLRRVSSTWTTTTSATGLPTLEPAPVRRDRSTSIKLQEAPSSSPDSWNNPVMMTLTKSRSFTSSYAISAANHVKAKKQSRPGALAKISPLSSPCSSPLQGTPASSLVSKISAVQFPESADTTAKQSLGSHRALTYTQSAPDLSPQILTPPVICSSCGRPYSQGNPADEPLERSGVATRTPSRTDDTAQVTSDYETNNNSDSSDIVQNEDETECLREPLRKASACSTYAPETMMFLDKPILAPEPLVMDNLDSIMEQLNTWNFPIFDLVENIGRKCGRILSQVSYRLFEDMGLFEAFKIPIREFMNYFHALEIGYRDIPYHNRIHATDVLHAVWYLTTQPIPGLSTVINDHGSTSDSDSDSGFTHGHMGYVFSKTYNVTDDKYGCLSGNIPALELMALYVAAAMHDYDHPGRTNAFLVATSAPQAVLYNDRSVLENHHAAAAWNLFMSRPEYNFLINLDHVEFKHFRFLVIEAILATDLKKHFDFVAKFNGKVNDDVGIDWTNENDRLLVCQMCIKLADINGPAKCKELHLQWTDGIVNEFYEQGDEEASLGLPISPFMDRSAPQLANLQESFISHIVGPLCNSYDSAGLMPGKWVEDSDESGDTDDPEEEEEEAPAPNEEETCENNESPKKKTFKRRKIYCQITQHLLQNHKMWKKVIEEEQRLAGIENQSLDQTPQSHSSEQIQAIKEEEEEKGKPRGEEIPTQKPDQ

The compound `NC(=O)c1sc2nc(N)nc(-c3ccc(Cl)cc3)c2c1N` [2,5-Diamino-4-(4-chloro-phenyl)-thieno[2,3-d]pyrimidine-6-carboxylic acid amide] gave a 50% inhibitory concentration (IC50) in experiment [1] of 120 nM. In addition, the “PDE1 (% inhibit at 10 μM)” value in the experiment on bovine PDE1 amounted to 18%. For the same compound, the inhibition at 10 µM at human PDE2 was 8%; in experiment [2] it was 14%; in experiment [3] it was -2%; in experiment [4], 8%.

Usually IC50 stands for the concentration needed to halve the response being measured. A high value points to weaker potency in that assay.
